The term Kd denotes the free concentration of one partner at which half of the binding sites on the other are occupied at equilibrium, for simple one-to-one binding. Lower therefore signals tighter binding. As usually defined, the MIC is the lowest concentration found to suppress growth.

Converted amounts (≈) assume the structure as drawn. Starred links: 1 amine or outer side, 2 acyl side, 3 side chain; linkers in the order of their positions; H or OH if unused. Non-standard residues stand in square brackets, D forms with d. Residues, ends and D or L forms follow the SMILES beside them. *: point of attachment. Trp(1-(1,1-Me2-allyl)) = C=CC(C)(C)n1cc(C[C@H](N)C(=O)O)c2ccccc21; Phe(βR-OMe) = CO[C@H](c1ccccc1)[C@H](N)C(=O)O; X4 = C/C=C/[C@@H](C)[C@H](N[*:1])C(=O)[*:2]; X2 = CN([C@@H](CCCO)C(=O)[*:2])[*:1]; NMeE = CN[C@@H](CCC(=O)O)C(=O)O; NMeL = CN[C@@H](CC(C)C)C(=O)O; NMeK = CN[C@@H](CCCCN)C(=O)O; tBu = CC(C)(C)*; NHPr = CCCN*

T1 sequence (A0R574 1-148): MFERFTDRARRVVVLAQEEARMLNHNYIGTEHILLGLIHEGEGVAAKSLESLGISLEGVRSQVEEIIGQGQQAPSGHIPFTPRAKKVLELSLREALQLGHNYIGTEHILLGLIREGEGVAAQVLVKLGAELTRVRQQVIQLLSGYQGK

Tested on in the first data set: not given
Experiment: not given
To be noted: the molecule shown is the open-chain precursor; amide bond; 21-membered ring; DIC/HOAt/Et3N; DCM; 0.75 mM; 25.0 °C.
Compound “H-Val-MeLeu-Ile-Trp(Boc)-MeLys(Boc)-Glu(TOTA-Biotin)-Phe(3R-MeO)-OH” had a ring closure, crude yield of 63%.
Still for that read-out and setting: next, “H-Val-MeLeu-Ile-Trp(prenyl)-MeLys(Boc)-Ala-Phe(3R-MeO)-OH”: 65%; “H-Val-MeLeu-Ile-Trp(Boc)-MeLys(Boc)-Lys(Biotin)-Phe(3R-MeO)-OH”: 72%.

A further data set has as its target T1, ClpC1NTD (Mycolicibacterium smegmatis, UniProt A0R574).
T1 construct: M. smegmatis clpC1 NTD (1-148) was cloned in pET21a; hexahistidine (C); made in house; host or cells: E. coli BL21 (DE3) or Rosetta
Nature of the data set: Binding affinity by isothermal titration calorimetry (ITC). To be noted: ITC at 25 °C, 50 mM Tris pH 7.5, 100 mM NaCl, 2% DMSO, single binding site model. Here is the method:
Binding affinities were determined using isothermal titration calorimetry (ITC).
ITC experiments were carried out using MicroCal PEAQ-ITC (Malvern) at 25 °C, whilst stirring at 750 rpm in a buffer containing 50 mM Tris pH 7.5, 100 mM NaCl. Each titration consisted of 19 injections with intervals of 120 s (the first injection of 0.4 µL followed by 18 injections of 2 µL). DMSO concentration was matched between cell and syringe to 2%. The data were fitted to a single binding site model with a fitted offset subtraction in the MicroCal PEAQ-ITC Analysis Software. Each titration was repeated at least two times. Titrations were performed with ligand in the syringe and protein in the cell. A control titration of ligand into buffer was performed in order to account for the heat of dilution. Titrations involving compounds with poorer solubility of the compound in buffer were performed with ligand in the cell and protein in the syringe. The following table 2 provides the results of the determination. Table 2: results for dissociation constant (KD) and Minimal Inhibitory Concentration (MIC)
In general terms: ITC needs no label: the signal is the heat of the interaction.
Regarding `CC[C@H](C)[C@@H]1NC(=O)[C@H](CC(C)C)N(C)C(=O)[C@H](C(C)C)NC(=O)[C@H](Cc2ccccc2)NC(=O)[C@H](C)NC(=O)[C@H](CCC(=O)O)N(C)C(=O)[C@H](Cc2c[nH]c3ccccc23)NC1=O` [CycloA_D2] (cyclo(AFV[NMeL]IW[NMeE])), binding was characterised by a dissociation constant (Kd) of 225 µM.
Take `CC[C@H](C)[C@@H]1NC(=O)[C@H](CC(C)C)N(C)C(=O)[C@H](C(C)C)NC(=O)[C@H](Cc2ccccc2)NC(=O)[C@H](C)NC(=O)[C@H](CCCO)N(C)C(=O)[C@H](Cc2c[nH]c3ccccc23)NC1=O` [CylcoA_D4] (cyclo(AFV[NMeL]IW[X2])): the dissociation constant (Kd) was found to be 107 µM.
Same read-out and setting: with `CC[C@H](C)[C@@H]1NC(=O)[C@H](CC(C)C)N(C)C(=O)[C@H](C(C)C)NC(=O)[C@H](Cc2ccccc2)NC(=O)[C@H](C)NC(=O)[C@H](CCCO)N(C)C(=O)[C@H](Cc2ccc(O)cc2)NC1=O` [CycloA_D5b] (cyclo(V[NMeL]IY[X2]AF)) the figure was 326 µM; with `CC[C@H](C)[C@@H]1NC(=O)[C@H](CC(C)C)N(C)C(=O)[C@H](C(C)C)NC(=O)[C@H]([C@H](OC)c2ccccc2)NC(=O)[C@H](C)NC(=O)[C@H](CCCCN)N(C)C(=O)[C@H](Cc2c[nH]c3ccccc23)NC1=O` [CycloA_D9] (cyclo(W[NMeK]A[Phe(βR-OMe)]V[NMeL]I)), 2.8 µM.
Same read-out and setting: with `CC[C@H](C)[C@@H]1NC(=O)[C@H](CC(C)C)N(C)C(=O)[C@H](C(C)C)NC(=O)[C@H](Cc2ccccc2)NC(=O)[C@H](C)NC(=O)[C@H](CCCO)N(C)C(=O)[C@H](Cc2ccc(OC(C)(C)C)cc2)NC1=O` [CycloA_D5a] (cyclo(V[NMeL]IY(tBu)[X2]AF)) the figure was 128 µM.
Still for that read-out and setting: with `CC[C@H](C)[C@@H]1NC(=O)[C@H](CC(C)C)N(C)C(=O)[C@H](C(C)C)NC(=O)[C@H](Cc2ccccc2)NC(=O)[C@H](C)NC(=O)[C@H](CCCCN)N(C)C(=O)[C@H](Cc2c[nH]c3ccccc23)NC1=O` [CycloA_D6] (cyclo(AFV[NMeL]IW[NMeK])) the figure was 14.9 µM.
`CCCNC(=O)CC[C@H]1C(=O)N[C@@H](C)C(=O)N[C@@H](Cc2ccccc2)C(=O)N[C@@H](C(C)C)C(=O)N(C)[C@@H](CC(C)C)C(=O)N[C@@H]([C@@H](C)CC)C(=O)N[C@@H](Cc2c[nH]c3ccccc23)C(=O)N1C` [CycloA_D7] (cyclo(AFV[NMeL]IW[NMeE](NHPr))) came in with a Kd of 26.8 µM.

In a further data set the test system is mycobacterial cell. Nature of the data set: Minimal Inhibitory Concentration (MIC). It is filed as cell-based.
Settings: not given
For the compound `C=CC(C)(C)n1cc(C[C@@H]2NC(=O)[C@H]([C@@H](C)CC)NC(=O)[C@H](CC(C)C)N(C)C(=O)[C@H](C(C)C)NC(=O)[C@H](Cc3ccccc3)NC(=O)[C@H](C)NC(=O)[C@H](CCCCN)N(C)C2=O)c2ccccc21` [CycloA_D10] (cyclo(AFV[NMeL]I[Trp(1-(1,1-Me2-allyl))][NMeK])), the MIC came out at 40 µM (≈ 38.2 µg/mL).
Take `CC[C@H](C)[C@@H]1NC(=O)[C@H](CCC(=O)O)N(C)C(=O)[C@H](C(C)C)NC(=O)[C@H]([C@H](OC)c2ccccc2)NC(=O)[C@H](C)NC(=O)[C@H](CCCCN)N(C)C(=O)[C@H](Cc2c[nH]c3ccccc23)NC1=O` [CycloA_D13] (cyclo(A[Phe(βR-OMe)]V[NMeE]IW[NMeK])): the MIC is above 200 µM.
In turn, `C=CC(C)(C)n1cc(C[C@@H]2NC(=O)[C@H]([C@H](C)/C=C/C)NC(=O)[C@H](CC(C)C)N(C)C(=O)[C@H](C(C)C)NC(=O)[C@H]([C@H](OC)c3ccccc3)NC(=O)[C@H](C)NC(=O)[C@H](CCCCN)N(C)C2=O)c2ccccc21` [CycloA_D17] (cyclo(A[Phe(βR-OMe)]V[NMeL][X4][Trp(1-(1,1-Me2-allyl))][NMeK])) came in with an MIC of 20 µM (≈ 19.9 µg/mL).
Still for that read-out and setting: with `C=CC(C)(C)n1cc(C[C@@H]2NC(=O)[C@H]([C@@H](C)CC)NC(=O)[C@H](CC(C)C)N(C)C(=O)[C@H](C(C)C)NC(=O)[C@H]([C@H](OC)c3ccccc3)NC(=O)[C@H](C)NC(=O)[C@H](CCCCN)N(C)C2=O)c2ccccc21` [CycloA_D11] (cyclo(A[Phe(βR-OMe)]V[NMeL]I[Trp(1-(1,1-Me2-allyl))][NMeK])) the figure was 20 µM (≈ 19.7 µg/mL); with `CC[C@H](C)[C@@H]1NC(=O)[C@H](CC(C)C)N(C)C(=O)[C@H](C(C)C)NC(=O)[C@H](Cc2ccccc2)NC(=O)[C@H](C)NC(=O)[C@H](CCCO)N(C)C(=O)[C@H](Cc2c[nH]c3ccccc23)NC1=O` [CylcoA_D4] (cyclo(AFV[NMeL]IW[X2])), above 30 µM.
Still for that read-out and setting: next, `CC[C@H](C)[C@@H]1NC(=O)[C@H](CC(C)C)N(C)C(=O)[C@H](C(C)C)NC(=O)[C@H]([C@H](OC)c2ccccc2)NC(=O)[C@H](C)NC(=O)[C@H](CCCCN)N(C)C(=O)[C@H](Cc2c[nH]c3ccccc23)NC1=O` [CycloA_D9] (cyclo(W[NMeK]A[Phe(βR-OMe)]V[NMeL]I)): 12 µM (≈ 11 µg/mL).
In turn, `CC[C@H](C)[C@@H]1NC(=O)[C@H](CC(C)C)N(C)C(=O)[C@H](C(C)C)NC(=O)[C@H](Cc2ccccc2)NC(=O)[C@H](C)NC(=O)[C@H](CCCO)N(C)C(=O)[C@H](Cc2ccc(OC(C)(C)C)cc2)NC1=O` [CycloA_D5a] (cyclo(V[NMeL]IY(tBu)[X2]AF)) showed a minimal inhibitory concentration (MIC) above 30 µM.
On the same count and under the same terms, next, `CC[C@H](C)[C@@H]1NC(=O)[C@H](CC(C)C)N(C)C(=O)[C@H](C(C)C)NC(=O)[C@H](Cc2ccccc2)NC(=O)[C@H](C)NC(=O)[C@H](CCCCN)N(C)C(=O)[C@H](Cc2c[nH]c3ccccc23)NC1=O` [CycloA_D6] (cyclo(AFV[NMeL]IW[NMeK])): 24 µM (≈ 21.3 µg/mL); `CCCNC(=O)CC[C@H]1C(=O)N[C@@H](C)C(=O)N[C@@H](Cc2ccccc2)C(=O)N[C@@H](C(C)C)C(=O)N(C)[C@@H](CC(C)C)C(=O)N[C@@H]([C@@H](C)CC)C(=O)N[C@@H](Cc2c[nH]c3ccccc23)C(=O)N1C` [CycloA_D7] (cyclo(AFV[NMeL]IW[NMeE](NHPr))): above 120 µM.

The values are drawn from EP4089103A1, “CLPCP PROTEASE-BINDING CYCLIC HEPTAPEPTIDES” (priority 2021, dated 2022).
